# Test results reported in US9957253B2, “Triaminopyrimidine compounds useful for preventing or treating malaria” (MMV MEDICINES FOR MALARIA VENTURE, priority 2014, dated 2018).
# Legend:
# P. vivax field isolates = assay: Ex vivo drug susceptibility (schizont maturation) of P. vivax field isolates; assay type: cell-based; conditions: Plasmodium vivax; Plasmodium field isolates, ex vivo; read-out: P. vivax IC50
# Protocol: (§1) Further, compounds of the invention (Examples 2 and 13) were also tested against field isolates of falciparum and vivax malaria, along with three control antimalarials as described in the protocol below.
# (§2) Ex Vivo Activity of Examples 2 and 13 Against Drug Resistant P. falciparum and P. Vivax Field Isolates
# (§3) Standard antimalarial drugs chloroquine (CQ), amodiaquine (AQ), piperaquine (PIP), mefloquine (MFQ), and artesunate (AS) and compounds of the invention were prepared as 1 mg/mL stock solutions in H2O or dimethyl sulfoxide (DMSO) according to the manufacturers' instructions. Drug plates were pre-dosed by diluting the compounds in 50% Methanol followed by lyophilisation and stored at 4° C.
# (§4) Plasmodium isolates were collected from patients attending malaria clinics in Timika (Papua, Indonesia), a region endemic for multi-drug-resistant strains of P. vivax and P. falciparum. Patients with symptomatic malaria presenting to an outpatient facility were recruited into the study if singly infected with P. falciparum or P. vivax, with a parasitaemia of between 2,000 μl-1 and 80,000 μl-1, and the majority (>80%) of parasites at ring stage of development. Venous blood (5 mL) was collected by venipuncture and after removal of host white blood cells by using cellulose (Sigma-Aldrich, Australia) filtration, packed infected red blood cells (iRBCs) were used for the ex vivo drug susceptibility assay.
# (§5) Drug susceptibility of P. vivax and P. falciparum isolates was measured using a protocol modified from the WHO microtest as described previously (Marfurt et al., 2011, Antimicrob Agents Chemother., 55(9):4461). Two hundred μL of a 2% haematocrit Blood Media Mixture (BMM), consisting of RPMI 1640 medium plus 10% AB+ human serum (P. falciparum) or McCoy's 5 A medium plus 20% AB+ human serum (P. vivax), was added to each well of pre-dosed drug plates containing 11 serial concentrations (2-fold dilutions) of the antimalarials (maximum concentration shown in brackets) CQ (2,992 nM), AQ (158 nM), PIP (1,029 nM), MFQ (338 nM), AS (49 nM), and a compound of the invention (2,146 nM). A candle jar was used to mature the parasites at 37.0° C. for 35-56 hours.
# (§6) Thick blood films made from each well were stained with 5% Giemsa solution for 30 minutes and examined microscopically. The number of schizonts per 200 asexual stage parasites was determined for each drug concentration and normalised to the control well. The dose-response data were analysed using nonlinear regression analysis (WinNonLn 4.1, Pharsight Corporation) and the IC50 value derived using an inhibitory sigmoid Emax model. […] Drug plate quality was assured by running schizont maturation assays (two independent experiments) with the chloroquine-resistant strain K1 and the chloroquine-sensitive strain FC27.
# (§7) For microscopy slide reading QC, two randomly selected drugs per isolate were read by a second microscopist. […] If necessary, discrepant results were resolved by a third reading by an expert microscopist.
# [1] = Pharmacokinetic studies (IVPK/POPK) in male Beagle dogs; assay type: in vivo; conditions: Dog
# Protocol: All in vivo studies were approved by the institutional animal ethics committee. Pharmacokinetics following IV bolus (IVPK) or oral administration (POPK) of compounds was determined in male Wistar rats or male Beagle dogs. For IVPK in rats, Example 7 and Example 10 were administered as solutions in 20% DMA, 80% phosphate-buffered saline and Example 13 was administered as a solution in 10% v/v NMP, 20% v/v DMA in saline. For POPK, Example 7 and Example 10 were administered as suspensions in 20% DMA, 80% phosphate buffered saline and Example 13 was administered as a suspension in 0.5% HPMC and 0.1% Tween 80 through an oral gavage. Example 13 was administered to dogs as a solution in 10% Ethanol, 30% PEG 400, 60% saline for IVPK and as a suspension in 0.5% HPMC, and 0.1% Tween 80 for POPK. Doses used for rat and dog PK were 0.5 mg/kg for Examples 7 and 10 or 2 mg/kg for Example 13 (IVPK). Doses of 5 mg/kg for Examples 7 and 10 were used during POPK. Doses of 10 mg/kg were used for Example 13 during POPK studies. Blood samples were collected at 8 to 13 time points (0, 0.0833, 0.25, 0.283, 0.333, 0.417, 0.75, 1.25, 3.25, 6.25, 12.25, 24.25 h for dog IVPK; 0, 0.25, 0.5, 1, 1.5, 2, 3, 4, 8, 12, 24, 32, 48 h for dog POPK; 0.083, 0.25, 0.5, 1, 2, 4, 7, 24 h for rat IVPK; 0.25, 1, 3, 6, 12, 24, 36, 48 h for rat POPK) after dosing. Blood (rat) or plasma (dog) samples were analysed by LC-MS/MS. PK parameters were estimated by non-compartmental analysis in Phoenix®.
# Pf parasites = assay: Pf/SCID model efficacy; assay type: in vivo, P. falciparum; conditions: oral
# Protocol: Blood Cmin (0.04 μM) observed at this dose was considered the minimum parasiticidal concentration (MPC) for the human dose prediction.
# [2] = test system: P. falciparum field isolates; assay: Ex vivo drug susceptibility (schizont maturation) of P. falciparum field isolates; assay type: cell-based; conditions: Plasmodium falciparum; Plasmodium field isolates, ex vivo; read-out: P. falciparum IC50
# Protocol: as §1, §2, §3, §4, §5, §6, §7
# [3] = Reactive intermediate trapping with GSH or NAC in liver microsomes; assay type: in vitro ADME, human, rat; conditions: 10 μM, 2 mM GSH or NAC
# Protocol: Metabolites of Example 13 were identified both in vitro and in vivo using the following models: • In vitro: The compound of Example 13 was incubated with human (HLM) or rat (RLM) liver microsomes (1 mg/ml protein concentration in 100 mM phosphate buffer, pH 7.4) at a final concentration of 10 μM in the presence of 2 mM NADPH. The reactive intermediates were trapped by including 2 mM glutathione (GSH) or N-acetyl cysteine (NAC) in the reaction mix. • In vivo in bile duct cannulated rats: Example 13 was administered intravenously (IV) as a bolus through the jugular vein at a dose of 2 mg/kg or 4 mg/kg of body weight for control (n=3) or BDC rats (n=2), respectively. Blood samples were collected at 0.083, 0.25, 0.5, 1, 2, 4, 6, 8 and 24 h through the carotid artery, bile samples were collected at 0-2 h, 2-4 h, 4-6 h, 6-8 h and 8-24 h intervals and urine samples were collected at 0-8 h and 8-24 h intervals. The bile and urine samples were analyzed for the presence of parent and metabolites and blood samples were analyzed for the presence of parent.
# parasite = assay: In vitro parasite reduction ratio (PRR) assay; assay type: cell-based; conditions: after 48 hours of exposure
# Protocol: When tested in an in vitro parasite reduction ratio (PRR) assay (Le Manach, et al., 2013, Malar J., […], 424-430), Example 13 produced a >4-log kill after 48 hours of exposure, an effect similar to chloroquine in the same assay.
structure (smiles),measurement,setting,value
"Cc1nc(Nc2ncc(N3CCN(C)[C@H](C)C3)c(Nc3cc(C)n(C)n3)n2)cc(C2CC2)c1F [Example 13, (R)—N2-(4-cyclopropyl-5-fluoro-6-methylpyridin-2-yl)-N4-(1,5-dimethyl-1H-pyrazol-3-yl)-5-(3,4-dimethylpiperazin-1-yl)pyrimidine-2,4-diamine]",IC50,P. vivax field isolates,85.6 nM
same,Oral ‘F’,[1]; oral 10 mg/kg,82%
same,½ life (PO PK),[1]; oral 10 mg/kg,9 h
same,clearance,"[1]; male, Beagle, blood, IV bolus 2 mg/kg, read-out: CL blood",19 mL/min/kg
same,Vd,"[1]; male, Beagle, blood, IV bolus 2 mg/kg, read-out: Vss blood",16 L/kg
same,Dose at which maximum kill rate was observed,Pf parasites,40 mg/kg
same,IC50,[2],74.6 nM
same,GSH or NAC adduct (reactive metabolite) formation,[3],no GSH or NAC adduct formation
same,log kill in parasite reduction ratio (PRR) assay,parasite,> 4 log
